Results published in BindingDB's records for doi:10.1021/jm7014155 (Bryn Mawr College, 2008).

Target: Indoleamine 2,3-dioxygenase 1 (Homo sapiens, UniProt P14902)
Assay: Enzyme Inhibition Assay
Conditions: pH 6.5; 37 °C
Method: The IC50 inhibition assays were performed in a 96-well microtiter plate format using purified recombinant IDO, which was added to the substrate, L-tryptophan (L-Trp), and the inhibitor. After the reaction, the product N-formylkynurenine was converted to kynurenine. The yellow color generated from reaction with kynurenine was measured at 490 nm using a microtiter plate reader. The data were analyzed using Graph Pad Prism 4 software (Graph Pad Software Inc.).

Indoleamine 2,3-dioxygenase 1, sequence (P14902 whole entry): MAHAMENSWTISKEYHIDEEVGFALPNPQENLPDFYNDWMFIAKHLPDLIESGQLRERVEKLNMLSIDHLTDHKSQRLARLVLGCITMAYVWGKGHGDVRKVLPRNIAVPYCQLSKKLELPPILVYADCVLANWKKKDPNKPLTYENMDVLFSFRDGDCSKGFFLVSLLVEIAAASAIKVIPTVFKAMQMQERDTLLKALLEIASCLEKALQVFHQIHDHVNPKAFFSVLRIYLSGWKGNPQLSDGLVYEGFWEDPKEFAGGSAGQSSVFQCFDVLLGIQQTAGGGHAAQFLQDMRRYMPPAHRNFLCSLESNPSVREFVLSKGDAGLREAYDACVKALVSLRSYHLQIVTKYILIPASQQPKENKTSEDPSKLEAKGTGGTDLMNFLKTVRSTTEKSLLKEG

Compound	IC50
O=C1CC(=O)c2ccccc2C1=O	675 µM
CC1=CC(=O)c2ccccc2C1=O [Vitamin K3]	1.1 µM
